Results taken from US10376481B2, “Compounds and methods for inhibiting NHE-mediated antiport in the treatment of disorders associated with fluid retention or salt overload and gastrointestinal tract disorders” (ARDELYX, INC, priority 2012, dated 2019).
One block for each compound: values may come before it.

How the values were obtained:
[1] = human absorption data, from Ertl et al.; cited from earlier work
[2] = biological target: T1, human NHE3 (Homo sapiens, UniProt P48764); assay: Cell-based assay of NHE-3 activity (pre-incubation inhibition), human; details: for IC50: PS120 fibroblasts stably expressing human NHE3, 10 min pre-incubation with 0-30 μM test compound, read-out: pIC50 (human Preincubation assay) (converted); for % inhibition (human Preincubation assay): PS120 fibroblasts stably expressing human NHE3, pre-incubation with test compound
T1 sequence (P48764 26-834): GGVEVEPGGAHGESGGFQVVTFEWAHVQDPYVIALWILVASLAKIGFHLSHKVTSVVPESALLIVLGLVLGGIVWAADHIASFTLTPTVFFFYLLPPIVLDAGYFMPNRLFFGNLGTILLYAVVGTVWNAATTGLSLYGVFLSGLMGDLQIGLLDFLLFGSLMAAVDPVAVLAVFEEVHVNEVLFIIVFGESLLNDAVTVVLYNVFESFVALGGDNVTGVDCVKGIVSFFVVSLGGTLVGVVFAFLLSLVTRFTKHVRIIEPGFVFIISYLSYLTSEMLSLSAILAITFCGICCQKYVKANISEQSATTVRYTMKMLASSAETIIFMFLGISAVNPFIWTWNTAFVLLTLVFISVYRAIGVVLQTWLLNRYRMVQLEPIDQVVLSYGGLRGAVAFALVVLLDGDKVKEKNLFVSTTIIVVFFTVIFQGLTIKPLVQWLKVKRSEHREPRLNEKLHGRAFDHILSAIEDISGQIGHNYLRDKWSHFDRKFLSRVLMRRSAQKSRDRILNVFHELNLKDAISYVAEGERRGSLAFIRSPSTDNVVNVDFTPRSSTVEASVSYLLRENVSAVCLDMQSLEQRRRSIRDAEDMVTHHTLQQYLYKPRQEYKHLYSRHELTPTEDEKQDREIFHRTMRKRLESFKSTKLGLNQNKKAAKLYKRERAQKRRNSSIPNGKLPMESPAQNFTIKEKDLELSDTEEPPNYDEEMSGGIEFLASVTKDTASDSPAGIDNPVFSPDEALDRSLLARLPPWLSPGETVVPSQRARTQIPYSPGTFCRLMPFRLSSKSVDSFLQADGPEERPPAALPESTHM
Experimental: Rat and human NHE-3-mediated Na^+-dependent H^+ antiport was measured using a modification of the pH sensitive dye method originally reported by Paradiso (Proc. Natl. Acad. Sci. USA. (1984) 81(23): 7436-7440, which is hereby incorporated by reference in its entirety). PS120 fibroblasts stably expressing human NHE3 were obtained from Mark Donowitz (Baltimore, Md.). Opossum kidney (OK) cells were obtained from the ATCC and propagated per their instructions. The rat NHE-3 gene (GenBank M85300) was introduced into OK cells via electroporation, and cells were seeded into 96 well plates and grown overnight. Medium was aspirated from the wells then incubated for 30 min at 37° C. with NH4Cl-HEPES buffer (20 mM NH4Cl, 80 mM NaCl, 50 mM HEPES, 5 mM KCl, 2 mM CaCl2, 1 mM MgCl2, pH 7.4) containing 5 μM BCECF-AM. Cells were washed once with Ammonium free, Nat-free HEPES (100 mM choline, 50 mM HEPES, 10 mM glucose, 5 mM KCl, 2 mM CaCl2, 1 mM MgCl2, pH 7.4) and incubated in the same buffer for 10 minutes at room temperature to lower intracellular pH with 0-30 μM test compound. […] Changes in intracellular pH were monitored using a FLIPR Tetra® (Molecular Devices, Sunnyvale, Calif.) by excitation at λex 439 to 505 nm, and measuring BCECF fluorescence at λem 538 nm. The initial rate of the fluorescence ratio change was used as a measure of NHE-mediated Na^+/H^+ activity, and reported as the change in fluorescence ratio per minute. Initial rates were plotted as the average 2 or more replicates, and pIC50 values were estimated using GraphPad Prism.

[3] = biological target: T1, human NHE3; assay: Cell-based assay of NHE-3 activity (persistent inhibition), human; details: PS120 fibroblasts stably expressing human NHE3, 60 min incubation then washout; for IC50: read-out: pIC50 (human Persistence assay) (converted)
Experimental: The ability of compounds to inhibit human and rat NHE-3-mediated Na^+-dependent H^+ antiport after application and washout was measured using a modification of the pH sensitive dye method described above. PS120 fibroblasts stably expressing human NHE3 were obtained from Mark Donowitz (Baltimore, Md.). Opossum kidney (OK) cells were obtained from the ATCC and propagated per their instructions. The rat NHE-3 gene was introduced into OK cells via electroporation, and cells were seeded into 96 well plates and grown overnight. Medium was aspirated from the wells, cells were washed once with NaCl-HEPES buffer (100 mM NaCl, 50 mM HEPES, 10 mM glucose, 5 mM KCl, 2 mM CaCl2, 1 mM MgCl2, pH 7.4), then overlayed with NaCl-HEPES buffer containing 0-30 μM test compound. After a 60 min incubation at room temperature, the test drug containing buffer was aspirated from the cells. Following aspiration, cells were washed once with NaCl-HEPES buffer without drug, then incubated for 30 min at 37° C. with NH4Cl-HEPES buffer (20 mM NH4Cl, 80 mM NaCl, 50 mM HEPES, 5 mM KCl, 2 mM CaCl2, 1 mM MgCl2, pH 7.4) containing 5 μM BCECF-AM. Cells were washed once with Ammonium free, Na^+-free HEPES (100 mM choline, 50 mM HEPES, 10 mM glucose, 5 mM KCl, 2 mM CaCl2, 1 mM MgCl2, pH 7.4) and incubated in the same buffer for 10 minutes at room temperature to lower intracellular pH. NHE-3-mediated recovery of neutral intracellular pH was initiated (10 min after compound washout) by addition of Na-HEPES buffer. […] Changes in intracellular pH were monitored using a FLIPR Tetra® (Molecular Devices, Sunnyvale, Calif.) by excitation at λex 439 to 505 nm, and measuring BCECF fluorescence at λem 538 nm. The initial rate of the fluorescence ratio change was used as a measure of NHE-mediated Na^+/H^+ activity, and reported as the change in fluorescence ratio per minute. Initial rates were plotted as the average 2 or more replicates, and pIC50 values were estimated using GraphPad Prism.

[4] = biological target: T1, human NHE3; assay: Cell-based assay of NHE-3 activity (human NHE3 inhibition assay); set-up: expressed in transfected cells; host or cells: Opossum kidney (OK) cells (ATCC), electroporated; details: OK cells with human NHE-3 gene, BCECF pH recovery, 0-30 μM test compound; read-out: Human NHE3 pIC50 (converted)
Experimental: Rat or human NHE-3-mediated Na^+-dependent H^+ antiport was measured using a modification of the pH sensitive dye method originally reported by Paradiso (Proc. Natl. Acad. Sci. USA. (1984) 81(23): 7436-7440). Opossum kidney (OK) cells were obtained from the ATCC and propagated per their instructions. The rat NHE-3 gene (GenBank M85300) or the human NHE-3 gene (GenBank NM_004174.1) was introduced into OK cells via electroporation, and cells were seeded into 96 well plates and grown overnight. Medium was aspirated from the wells, cells were washed twice with NaCl-HEPES buffer (100 mM NaCl, 50 mM HEPES, 10 mM glucose, 5 mM KCl, 2 mM CaCl2, 1 mM MgCl2, pH 7.4), then incubated for 30 min at room temperature with NH4Cl-HEPES buffer (20 mM NH4Cl, 80 mM NaCl, 50 mM HEPES, 5 mM KCl, 2 mM CaCl2, 1 mM MgCl2, pH 7.4) containing 5 μM bis(acetoxymethyl) 3,3′-(3′,6′-bis(acetoxymethoxy)-5-((acetoxymethoxy)carbonyl)-3-oxo-3H-spiro[isobenzofuran-1,9′-xanthene]-2′,7′-diyl)dipropanoate (BCECF-AM). Cells were washed twice with Ammonium free, Na^+-free HEPES (100 mM choline, 50 mM HEPES, 10 mM glucose, 5 mM KCl, 2 mM CaCl2, 1 mM MgCl2, pH 7.4) and incubated in the same buffer for 10 minutes at room temperature to lower intracellular pH. […] Initial rates were plotted as the average 2 or more replicates, and pIC50 values were estimated using GraphPad Prism.

[5] = system: absorption of sodium from the intestinal lumen; assay: Inhibition of intestinal sodium absorption: rat urinary sodium and fecal form 16 h post-dose; assay type: in vivo, Sprague-Dawley rats
Experimental: Urinary sodium concentration and fecal form were measured to assess the ability of selected example compounds to inhibit the absorption of sodium from the intestinal lumen. Eight-week old Sprague-Dawley rats were purchased from Charles River Laboratories (Hollister, Calif.), were housed 2 per cage, and acclimated for at least 3 days before study initiation. Animals were fed Harlan Teklad Global 2018 rodent chow (Indianapolis, Ind.) and water ad libitum throughout the study and maintained in a standard light/dark cycle of 6 AM to 6 PM. On the day of the study, between 4 PM and 5 PM, a group of rats (n=6) were dosed via oral gavage with test compound or vehicle (water) at a volume of 10 mL/kg. After dose administration animals were placed in individual metabolic cages where they were also fed the same chow in meal form and watered ad libitum. At 16 h post-dose, the urine samples were collected and fecal form was assessed by two independent observations. Fecal forms were scored according to a common scale associated with increasing fecal water to the wettest observation in the cage's collection funnel (1, normal pellet; 2, pellet adhering to sides of collection funnel due to moisture; 3, loss of normal pellet shape; 4, complete loss of shape with a blotting pattern; 5, liquid fecal streams evident). A rat's fecal form score (FFS) was determined by averaging both observational scores for all rats within a group (n=6). The vehicle group average was 1. For urine samples, the volumes were determined gravimetrically and centrifuged at 3,600×g. The supernatants were diluted 100-fold in deionized Milli-Q water then filtered through a 0.2 μm GHP Pall AcroPrep filter plate (Pall Life Sciences, Ann Arbor, Mich.) prior to analysis by ion chromatography. Ten microliters of each filtered extract was injected onto a Dionex ICS-3000 ion chromatograph system (Dionex, Sunnyvale, Calif.). Cations were separated by an isocratic method using 25 mM methanesulfonic acid as the eluent on an IonPac CS12A 2 mm i.d.×250 mm, 8 μm particle size cation exchange column (Dionex). Sodium was quantified using standards prepared from a cation standard mix containing Li^+, Na^+, NH4^+, K^+, Mg^2+, and Ca^2+ (Dionex). The mean mass of sodium urinated for every group in the 16 h period was determined with the vehicle group usually urinating approximately 21 mg sodium. The urine Na (uNa) for rats in the test groups were expressed as a percentage of the vehicle mean and the means were compared to that of the vehicle group by utilizing a one-way analysis of variance coupled with a Dunnett's post hoc test.

[6] = oral gavage 10 mg/kg, urine 16 h post-dose, read-out: uNa Result, uNa (% of vehicle)

Compound: Cc1ccccc1N1C(=O)c2cc(S(N)(=O)=O)c(Cl)cc2NC1C (centres unmarked) [metolazone]
% FA [1]: 64%

Compound: NC[C@H]1CC[C@H](C(=O)O)CC1 [tranexamic acid]
% FA [1]: 55%

Compound: CCN1CCCC1CNC(=O)c1cc(S(N)(=O)=O)ccc1OC (centres unmarked) [sulpiride]
% FA [1]: 36%

Compound: CC(N)(CCC(=O)NCCOCCOCCNS(=O)(=O)c1ccc(O[C@H]2c3ccccc3C[C@@H]2N2CCCCC2)cc1)CCC(=O)NCCOCCOCCNS(=O)(=O)c1ccc(O[C@H]2c3ccccc3C[C@@H]2N2CCCCC2)cc1 [Example 37]
FFS (fecal form score) ([5]; oral gavage 10 mg/kg, 16 h post-dose, scale 1-5, group average): 1 | response vs control in vivo at 10 mg/kg [5, 6]: 35 to 75% | IC50 [4]: < 100 nM

Compound: CC(C)(C(=O)NCCOCCOCCOCCNS(=O)(=O)c1ccc(O[C@H]2c3ccccc3C[C@@H]2N2CCCCC2)cc1)C(=O)NCCOCCOCCOCCNS(=O)(=O)c1ccc(O[C@H]2c3ccccc3C[C@@H]2N2CCCCC2)cc1 [Example 7, 2,2-dimethyl-N1,N3-bis(2-(2-(2-(2-(4-((1S,2S)-2-(piperidin-1-yl)-2,3-dihydro-1H-inden-1-yloxy)phenylsulfonamido)ethoxy)ethoxy)ethoxy)ethyl)malonamide]
response vs control in vivo at 10 mg/kg [5, 6]: 35 to 75% | IC50 [4]: < 100 nM

Continued, in another order:

IC50 [2]: < 100 nM | % inhibition (human Preincubation assay) [2]: C (>70%) | % inhibition (human Persistence assay) [3]: B (40-70%) | IC50 [3]: > 1000 nM | IC50 [4]: < 100 nM
Compound: N[C@@H]1CCCN([C@H]2Cc3c(F)cc(Cl)cc3[C@@H]2Oc2ccc(S(=O)(=O)NCCOCCOCCNC(=O)NCCCCNC(=O)NCCOCCOCCNS(=O)(=O)c3ccc(O[C@H]4c5cc(Cl)cc(F)c5C[C@@H]4N4CCC[C@@H](N)C4)cc3)cc2)C1 [Example 29]

IC50 [4]: < 100 nM
Compound: CN(C)[C@H]1Cc2c(Cl)cc(Cl)cc2[C@@H]1Oc1ccc(S(=O)(=O)NCCOCCOCCNC(=O)CCC(C)(CCC(=O)NCCOCCOCCNS(=O)(=O)c2ccc(O[C@H]3c4cc(Cl)cc(Cl)c4C[C@@H]3N(C)C)cc2)NC(=O)CCC(=O)O)cc1 [Example 12, 1-(4-((1S,2S)-4,6-dichloro-2-(dimethylamino)-2,3-dihydro-1H-inden-1-yloxy)phenylsulfonamido)-13-(3-(2-(2-(2-(4-((1S,2S)-4,6-dichloro-2-(dimethylamino)-2,3-dihydro-1H-inden-1-yloxy)phenylsulfonamido)ethoxy)ethoxy)ethylamino)-3-oxopropyl)-13-methyl-10,15-dioxo-3,6-dioxa-9,14-diazaoctadecan-18-oic Acid]
response vs control in vivo at 3 mg/kg ([5]; oral gavage 3 mg/kg, urine 16 h post-dose, read-out: uNa Result, uNa (% of vehicle)): 35 to 75%

IC50 [2]: < 100 nM | % inhibition (human Preincubation assay) [2]: C (>70%) | % inhibition (human Persistence assay) [3]: C (>70%) | IC50 [3]: < 100 nM | IC50 [4]: < 100 nM
Compound: O=C(NCCCCNC(=O)NCCOCCOCCNS(=O)(=O)c1ccc(O[C@H]2c3cc(Cl)cc(Cl)c3C[C@@H]2N2CCCC2)cc1)NCCOCCOCCNS(=O)(=O)c1ccc(O[C@H]2c3cc(Cl)cc(Cl)c3C[C@@H]2N2CCCC2)cc1 [Example 17]
